From patent US10575528B2, “Plant disease control composition and plant disease control method” (SUMITOMO CHEMICAL COMPANY, LIMITED, priority 2015, dated 2020)

How the values were obtained:
[1] = system: damping-off fungus (Rhizoctonia solani); assay: Test Example 16: soybean seed smearing treatment, damping-off pot test (Table 5); format: in vivo; conditions: soybean seeds, 20 days after
Experimental: (§1) If the effect by the combination of two active ingredients is greater than that of the estimated value E, which is calculated by the Colby's equation as follows, the effect is regarded as synergistic. E=X+Y−X·Y/100 wherein, E=Control value when using the mixture of the active ingredients A and B at the concentrations m and n (amount of the active ingredient), respectively.
(§2) X=Control value when using the active ingredient A at the concentration m (amount of the active ingredient).
(§3) Y=Control value when using the active ingredient B at the concentration n (amount of the active ingredient).
In a rotary seed treatment machine (trade name: HEGE11, manufactured by WINTERSTEIGER), soybean seeds (variety:“Hatayutaka”) were treated by smearing treatment using azoxystrobin flowable formulation (25% flowable formulation, trade name: Amistar, Syngenta), trifloxystrobin flowable formulation (25% flowable formulation, trade name: FLINT, Bayer CropScience), a chemical liquid prepared by diluting picoxystrobin in acetone/Tween 20 (weight ratio=95:5) and diluting with water, a chemical liquid prepared by dissolving mandestrobin in acetone/Tween 20 (weight ratio=95:5) and diluting with water, and the flowable formulation obtained of the present bacterial strain in Formulation Example 16, so that the soybean seeds retain the bacteria and the compound in the amount shown in Table 5.
Cultivation was carried out in a greenhouse under irrigation. Also, similar procedures were conducted using untreated soybean seeds, instead of the treated soybean seeds, as described above for the treated compartment (“untreated compartment”). The plants were investigated 20 days after for the number of diseased plants, and the disease incidence was calculated by the following “Equation 1”. The control value of the treated compartment was calculated by the following equation “Equation 2”, based on the disease incidences of the treated compartment and the untreated compartment. Disease incidence (%)=100×(number of diseased plant/total number of seeded seeds): Equation 1 Control value (%)=100×[(disease incidence in untreated compartment−disease incidence in treated compartment)/disease incidence in untreated compartment]: Equation 2

[2] = system: damping-off fungus (Fusarium spp.); assay: Test Example 15: corn seed smearing treatment, damping-off pot test (Table 4); format: in vivo; conditions: corn seeds, 20 days after
Experimental: In a rotary seed treatment machine (trade name: HEGE11, manufactured by WINTERSTEIGER), corn seeds (variety: yellow dent corn) were treated by smearing treatment using pyraclostrobin flowable formulation (20% wettable granules, trade name: Comet, BASF. Corporation), a chemical liquid prepared by dissolving fluoxastrobin in acetone/Tween 20 (weight ratio=95:5) and diluting with water, and the flowable formulation of the present bacterial strain obtained in Formulation Example 16, respectively, so that the corn seeds retain the present bacterial strain and the compound in the amount shown in Table 4.
Cultivation was carried out in a greenhouse under irrigation. Also, similar procedures were conducted using untreated corn seeds, instead of the treated corn seeds, as described above for the treated compartment (“untreated compartment”). The plants were investigated 20 days after for the number of diseased plants, and the disease incidence was calculated by the following “Equation 1”. The control value of the treated compartment was calculated by the following equation “Equation 2”, based on the disease incidences of the treated compartment and the untreated compartment. Disease incidence (%)=100×(number of diseased plant/total number of seeded seeds): Equation 1 Control value (%)=100×[(disease incidence in […] in treated compartment)/disease incidence in untreated compartment]: Equation 2
as §1, §2, §3

CO/C=C(/C(=O)OC)c1ccccc1Oc1cc(Oc2ccccc2C#N)ncn1 [Azoxystrobin]
Controlling Effect (control value) ([1]; 0.005 g/Kg seeds): 15.9%
Controlling Effect (control value) ([1]; 0.01 g/Kg seeds): 29.5%
Controlling Effect (control value) ([1]; 0.02 g/Kg seeds): 38.6%

CO/N=C(/C1=NOCCO1)c1ccccc1Oc1ncnc(Oc2ccccc2Cl)c1F [Fluoxastrobin]
Controlling Effect (control value) ([2]; 0.05 g/Kg seeds): 14.0%
Controlling Effect (control value) ([2]; 0.1 g/Kg seeds): 30.2%
Controlling Effect (control value) ([2]; 0.2 g/Kg seeds): 41.9%

CNC(=O)C(OC)c1ccccc1COc1cc(C)ccc1C (stereo not drawn) [Mandestrobin]
Controlling Effect (control value) ([1]; 0.025 g/Kg seeds): 25.0%
Controlling Effect (control value) ([1]; 0.05 g/Kg seeds): 36.4%
Controlling Effect (control value) ([1]; 0.1 g/Kg seeds): 47.7%

CO/C=C(/C(=O)OC)c1ccccc1COc1cccc(C(F)(F)F)n1 [Picoxystrobin]
Controlling Effect (control value) ([1]; 0.002 g/Kg seeds): 18.2%
Controlling Effect (control value) ([1]; 0.01 g/Kg seeds): 27.3%
Controlling Effect (control value) ([1]; 0.05 g/Kg seeds): 38.6%

COC(=O)N(OC)c1ccccc1COc1ccn(-c2ccc(Cl)cc2)n1 [Pyraclostrobin]
Controlling Effect (control value) ([2]; 0.025 g/Kg seeds): 18.6%
Controlling Effect (control value) ([2]; 0.05 g/Kg seeds): 25.6%
Controlling Effect (control value) ([2]; 0.1 g/Kg seeds): 37.2%

CON=C(C(=O)OC)c1ccccc1CON=C(C)c1cccc(C(F)(F)F)c1 [Trifloxystrobin]
Controlling Effect (control value) ([1]; 0.002 g/Kg seeds): 20.5%
Controlling Effect (control value) ([1]; 0.01 g/Kg seeds): 31.8%
Controlling Effect (control value) ([1]; 0.05 g/Kg seeds): 40.9%
